The record followed here is patent US11046709B2, “Fused 1,4-diazepines as BET bromodomain inhibitors” (THE REGENTS OF THE UNIVERSITY OF MICHIGAN, priority 2017, dated 2021).

One assay has as its target T1, recombinant BRD4 BD1 (Homo sapiens, UniProt O60885).
T1 construct: for recombinant BRD4 BD1 and BRD4 BD2 proteins
As to the kind of experiment: Competitive fluorescence-polarization (FP) binding assay, BRD4 BD1. As to the method: Fluorescence Polarization (FP) competitive binding studies were carried out using a FAM labeled fluorescent probe, see, e.g., Cpd. No. 350 of US 2014/0256706, to determine binding affinities of representative Compounds of the Disclosure for recombinant BRD4 BD1 and BRD4 BD2 proteins. Equilibrium dissociation constants (Kd) values of the fluorescent probe to BRD4 BD1 and BD2 proteins were determined from protein saturation experiments by monitoring the total fluorescence polarization of mixtures composed with the fluorescent probe at a fixed concentration and proteins with increasing concentrations up to full saturation. Serial dilutions of testing proteins were mixed with the fluorescent probe to a final volume of 200 μl in the assay buffer (100 mM phosphate buffer, pH=6.5, 0.01% Triton X-100 (Sigma, 282103) being added right before assays). Final fluorescent probe concentration was 1.5 nM for both proteins. Plates were incubated at room temperature for 30 minutes with gentle shaking to assure equilibrium. FP values in millipolarization units (mP) were measured using the Infinite M-1000 plate reader (Tecan U.S., Research Triangle Park, N.C.) in Microfluor 1 96-well, black, round-bottom plates (Thermo Scientific, Waltham, Mass.) at an excitation wavelength of 485 nm and an emission wavelength of 530 nm. Kd values of the fluorescent probe, which were calculated by fitting the sigmoidal dose-dependent FP increases as a function of protein concentrations using Graphpad Prism 6.0 software (Graphpad Software, San Diego, Calif.), are 5.5 and 3.0 nM to BDR4 BD1 and 2, respectively.
The IC50 and Ki values of compounds were determined in a competitive binding experiment. See US 2014/0256706. Mixtures of 10 μl of the tested compounds in assay buffer with 40% Ethylene Glycol and 190 μl of preincubated protein/probe complex solution in the assay buffer (100 mM potassium phosphate, pH 6.5, 0.01% Triton X-100) were added into assay plates which were incubated at room temperature for 30 minutes with gentle shaking. Final concentrations of proteins were 10 and 6 nM in assays for BRD4 BD1 and BD2, respectively. Final probe concentration is 1.5 nM in both assays. Negative controls containing protein/probe complex only (equivalent to 0% inhibition), and positive controls containing only free probes (equivalent to 100% inhibition), were included in each assay plate. FP values were measured as described above. IC50 values were determined by nonlinear regression fitting of the competition curves. Instead of being calculated from IC50 values as described before. Ki values of competitive inhibitors were obtained directly by nonlinear regression fitting as well, based upon the Kd values of the probe to different proteins, and concentrations of the proteins and probes in the competitive assays (US 2014/0256706; Wang, FEBS Lett. 360:111 (1995); Zhang et al., Analytical Biochemistry, 331:138 (2004)).
Representative compounds in Table 5 were evaluated for their binding affinities to BRD4 BD1 and BD2 proteins using the Competitive Fluorescence-Polarization (FP) Assays described in Example 6, with the data included in Table 6.

The next assay has as its system MDA-MB-231. The experiment in a line: Cell growth inhibition, 4-day proliferation assay, MDA-MB-231. The assay is classed as cell-based. The settings on record: Homo sapiens. A digest of the protocol: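 WST-8 colorimetric read-out (absorbance 450 nm after 1-2 h) after 4-day compound exposure of 3,000-10,000 cells/well at 37 °C; IC50 from variable-slope sigmoid fit of DMSO-normalized signal.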

The target in the next assay is T2, recombinant BRD4 BD2 (Homo sapiens, UniProt O60885).
T2 construct: for recombinant BRD4 BD1 and BRD4 BD2 proteins
The experiment in a line: Competitive fluorescence-polarization (FP) binding assay, BRD4 BD2.

The subject of the next assay is MOLM-13. As to the kind of experiment: Cell growth inhibition, 4-day proliferation assay, MOLM-13. It counts as cell-based. The settings on record: Homo sapiens, MOLM-13, WST-8 assay, Table 7; read-out: Cell growth inhibition (IC50 (nM)) MOLM-13.
[1] abbreviates: competitive FP, Table 6, read-out: IC50 as determinined in FP assays BRD4 BD1.
Where [2] appears, read: MDA-MB-231, WST-8 assay, Table 7, read-out: Cell growth inhibition (IC50 (nM)) MDA-MB-231.
[3] abbreviates: competitive FP, Table 6, read-out: IC50 as determinined in FP assays BRD4 BD2.

Where two headings read alike, the source gives them in different places.

Turning to `Cc1nnc(C[C@@H]2N=C(c3ccc(Cl)cc3)c3c(sc(C#Cc4ccccn4)c3C)-n3c(C)nnc32)o1` [Compound 129, (S)-2-((4-(4-chlorophenyl)-3,9-dimethyl-2-(pyridin-2-ylethynyl)-6H-thieno[3,2-f][1,2,4]triazolo[4,3-a][1,4]diazepin-6-yl)methyl)-5-methyl-1,3,4-oxadiazole], the figures for the IC50 on recombinant BRD4 BD1 (setting [1]), in the assay on MDA-MB-231 (setting [2]) and on recombinant BRD4 BD2 (setting [3]) were 9.4 nM, 6 nM and 27.6 nM, respectively.
On to `Cc1c(C#Cc2cccnc2)sc2c1C(c1ccc(Cl)cc1)=N[C@@H](CC(=O)N1CCOCC1)c1nnc(C)n1-2` [Compound 118, (S)-2-(4-(4-chlorophenyl)-3,9-dimethyl-2-(pyridin-3-ylethynyl)-6H-thieno[3,2-f][1,2,4]triazolo[4,3-a][1,4]diazepin-6-yl)-1-morpholinoethan-1-one], for which the IC50 in the assay with MOLM-13 was found to be 9.2 nM; at recombinant BRD4 BD1 (setting [1]) it was 6.1 nM; with MDA-MB-231 (setting [2]) it was 103 nM; at recombinant BRD4 BD2 (setting [3]) it was 27.7 nM.
Take `CCNC(=O)C[C@@H]1N=C(c2ccc(Cl)cc2)c2c(sc(C#Cc3cccnc3)c2C)-n2c(C)nnc21` [Compound 114, (S)-2-(4-(4-chlorophenyl)-3,9-dimethyl-2-(pyridin-3-ylethynyl)-6H-thieno[3,2-f][1,2,4]triazolo[4,3-a][1,4]diazepin-6-yl)-N-ethylacetamide]: the IC50 in the assay on MOLM-13 is 13.8 nM; at recombinant BRD4 BD1 (setting [1]), 8.2 nM; in the assay on MDA-MB-231 (setting [2]), 39.4 nM; on recombinant BRD4 BD2 (setting [3]), 4.7 nM.
The like results for `Cc1c(C#Cc2cccnc2)sc2c1C(c1ccc(Cl)cc1)=N[C@@H](CC(N)=O)c1nnc(C)n1-2` [Compound 113, (S)-2-(4-(4-chlorophenyl)-3,9-dimethyl-2-(pyridin-3-ylethynyl)-6H-thieno[3,2-f][1,2,4]triazolo[4,3-a][1,4]diazepin-6-yl)acetamide] were, in that order, 2.7 nM, 4.1 nM, 23.9 nM and 11.4 nM.
On to `Cc1c(C#Cc2ccccn2)sc2c1C(c1ccc(Cl)cc1)=N[C@@H](CC(=O)N1CC(F)(F)C1)c1nnc(C)n1-2` [Compound 127, (S)-2-(4-(4-chlorophenyl)-3,9-dimethyl-2-(pyridin-2-ylethynyl)-6H-thieno[3,2-f][1,2,4]triazolo[4,3-a][1,4]diazepin-6-yl)-1-(3,3-difluoroazetidin-1-yl)ethan-1-one], for which the IC50 in the assay on MOLM-13 turned out to be 57 nM; on recombinant BRD4 BD1 (setting [1]), 25.9 nM; in the assay on MDA-MB-231 (setting [2]), 47 nM; on recombinant BRD4 BD2 (setting [3]), 79 nM.
The like results for `CC(=O)NNC(=O)C[C@@H]1N=C(c2ccc(Cl)cc2)c2c(sc(C#Cc3ccccn3)c2C)-n2c(C)nnc21` [Compound 128, (S)—N′-acetyl-2-(4-(4-chlorophenyl)-3,9-dimethyl-2-(pyridin-2-ylethynyl)-6H-thieno[3,2-f][1,2,4]triazolo[4,3-a][1,4]diazepin-6-yl)acetohydrazide] were, in that order, 42.6 nM, 21.7 nM, 202 nM and 12.8 nM.
The like results for `Cc1c(C#Cc2ccccn2)sc2c1C(c1ccc(Cl)cc1)=N[C@@H](CC(=O)N1CCNCC1)c1nnc(C)n1-2` [Compound 122, (S)-2-(4-(4-chlorophenyl)-3,9-dimethyl-2-(pyridin-2-ylethynyl)-6H-thieno[3,2-f][1,2,4]triazolo[4,3-a][1,4]diazepin-6-yl)-1-(piperazin-1-yl)ethan-1-one] were, in that order, 15.3 nM, 14.2 nM, 19.4 nM and 34.6 nM.
With `Cc1c(C#Cc2cccnc2)sc2c1C(c1ccc(Cl)cc1)=N[C@@H](CC(=O)O)c1nnc(C)n1-2` [Compound 112, (S)-2-(4-(4-chlorophenyl)-3,9-dimethyl-2-(pyridin-3-ylethynyl)-6H-thieno[3,2-f][1,2,4]triazolo[4,3-a][1,4]diazepin-6-yl)acetic acid], the concentration for half-maximal inhibition (IC50) in the assay with MOLM-13 came out at 644 nM; at recombinant BRD4 BD1 (setting [1]), 86.2 nM; in the assay on MDA-MB-231 (setting [2]), 1860 nM; on recombinant BRD4 BD2 (setting [3]) it was 23 nM.
The like results for `Cc1c(C#Cc2ccccn2)sc2c1C(c1ccc(Cl)cc1)=N[C@@H](Cc1nnc(C3CC3)o1)c1nnc(C)n1-2` [Compound 136, (S)-2-((4-(4-chlorophenyl)-3,9-dimethyl-2-(pyridin-2-ylethynyl)-6H-thieno[3,2-f][1,2,4]triazolo[4,3-a][1,4]diazepin-6-yl)methyl)-5-cyclopropyl-1,3,4-oxadiazole] were, in that order, 28.1 nM, 11.3 nM, 52.1 nM and 60.1 nM.
The like results for `Cc1c(C#Cc2ccccn2)sc2c1C(c1ccc(Cl)cc1)=N[C@@H](CC(=O)N1CCC(O)CC1)c1nnc(C)n1-2` [Compound 123, (S)-2-(4-(4-chlorophenyl)-3,9-dimethyl-2-(pyridin-2-ylethynyl)-6H-thieno[3,2-f][1,2,4]triazolo[4,3-a][1,4]diazepin-6-yl)-1-(4-hydroxypiperidin-1-yl)ethan-1-one] were, in that order, 71.6 nM, 20.4 nM, 61.1 nM and 59.4 nM.
The corresponding values for `Cc1c(C#Cc2ccccn2)sc2c1C(c1ccc(Cl)cc1)=N[C@@H](CC(=O)N1CC3(COC3)C1)c1nnc(C)n1-2` [Compound 124, (S)-2-(4-(4-chlorophenyl)-3,9-dimethyl-2-(pyridin-2-ylethynyl)-6H-thieno[3,2-f][1,2,4]triazolo[4,3-a][1,4]diazepin-6-yl)-1-(2-oxa-6-azaspiro[3.3]heptan-6-yl)ethan-1-one] are 57.4 nM, 10.9 nM, 86.3 nM and 62 nM.
Take `CNC(=O)CCn1cc(C#Cc2sc3c(c2C)C(c2ccc(Cl)cc2)=N[C@@H](C)c2nnc(C)n2-3)cn1` [Compound 104, (S)-3-(4-((4-(4-chlorophenyl)-3,6,9-trimethyl-6H-thieno[3,2-f][1,2,4]triazolo[4,3-a][1,4]diazepin-2-yl)ethynyl)-1H-pyrazol-1-yl)-N-methylpropanamide]: the half-maximal inhibitory concentration (IC50) on recombinant BRD4 BD1 (setting [1]) was 4.9 nM; with MDA-MB-231 (setting [2]), 40 ± 10 nM; at recombinant BRD4 BD2 (setting [3]) it was 45.1 nM.
Turning to `Cc1nnc(C[C@@H]2N=C(c3ccc(Cl)cc3)c3c(sc(C#Cc4ccccn4)c3C)-n3c(C)nnc32)s1` [Compound 134, (S)-4-(4-chlorophenyl)-3,9-dimethyl-6-((5-methyl-1,3,4-thiadiazol-2-yl)methyl)-2-(pyridin-2-ylethynyl)-6H-thieno[3,2-f][1,2,4]triazolo[4,3-a][1,4]diazepine], the IC50 came to 11.9 nM with MOLM-13, 7.88 nM on recombinant BRD4 BD1 (setting [1]), 85.2 nM in the assay with MDA-MB-231 (setting [2]) and 59.2 nM on recombinant BRD4 BD2 (setting [3]).
For `Cc1c(C#Cc2cnn(CCC(N)=O)c2)sc2c1C(c1ccc(Cl)cc1)=N[C@@H](C)c1nnc(C)n1-2` [Compound 103, (S)-3-(4-((4-(4-chlorophenyl)-3,6,9-trimethyl-6H-thieno[3,2-f][1,2,4]triazolo[4,3-a][1,4]diazepin-2-yl)ethynyl)-1H-pyrazol-1-yl)propanamide], the IC50 at recombinant BRD4 BD1 is 4 nM; with MDA-MB-231 (MDA-MB-231, read-out: Cell growth inhibition (IC50 (nM)) MDA-MB-231), 60 ± 20 nM; on recombinant BRD4 BD2 it was 15.4 nM.

As usually defined, the IC50 is the point on the concentration scale where inhibition reaches its midpoint.
